From article PMC12474757, “Paving the way for future PSMA inhibitors: insights from comparative preclinical evaluations of structure modifications” (EJNMMI Radiopharmacy and Chemistry, 2025)
Where two headings read alike, the source gives them in different places. Each block holds one compound with its values, some of them ahead of it.

Legend:
[1] = system: LNCaP tumour-bearing mice; test: Ex vivo biodistribution in LNCaP tumour-bearing mice; parameters: species or system SCID mice; conditions: for tumour-to-blood ratio / tumour-to-kidney ratio / tumour-to-muscle ratio: mean ± SD, n = 4
Protocol: The eight-week-old male SCID mice (Charles River, Massachusetts, USA) were used to generate the mouse tumour model. The implantation of 10 million LNCaP cells (ATCC, Virginia, USA) per mouse in a 1:1 mixture of Matrigel matrix (Corning, New York, USA) was performed subcutaneously behind the right shoulder of the mouse. Tumours of adequate size, representing a volume of 100–300 mm³, were observed after five to six weeks.
Ex vivo biodistribution of PSMA inhibitors in tumor-bearing mice was conducted as follows. Concisely, 30 µL of acetate buffer was added to the each ⁶⁸Ga -labelled inhibitor, namely: ⁶⁸Ga-P15, ⁶⁸Ga-P16, ⁶⁸Ga-P19, and ⁶⁸Ga-PSMA-617 to achieve physiological pH. Mice were r.o. injected with 100 µL of labelled inhibitor (2 MBq, approximately 0.5 µg of the inhibitor). Animals were divided into two groups for biodistribution studies at 1 and 2 h after administration of the respective ^68Ga-labelled PSMA inhibitor. The animals were sacrificed and autopsied after euthanasia, and organs: spleen, pancreas, stomach, intestine, kidney, liver, heart, lung, muscle, bone, and tumour were collected in scintillation vials. The vials containing the samples were weighed and measured in a Wizard2 gamma counter (PerkinElmer, USA). The measured values were then adjusted for radionuclide decay and expressed as a percentage of administered dose per gram of organ (%ID/g). The NanoScan® hybrid Positron Emission Tomography/Computed Tomography (PET/CT) machine (Mediso, Budapest, Hungary) was used for in vivo imaging specifically whole-body helical PET/CT scans. Imaging settings were: single field of view (FOV) PET scans (98.5 mm) which took 10 min for each mouse and helical CT scans (50 kVp/980 µA, 720 projections) both took place one hour after the administration. Each mouse received an injection of approximately 10 MBq of tested radiopharmaceutical. To prevent the mice’s eyes from drying out during anaesthesia eye ointment (Ophthalmo-Azulen, Zentiva, CR) was applied. Image reconstruction was performed using Mediso Tera-Tomo 3D PET iterative reconstruction (Mediso Medical Imaging Systems, Budapest, Hungary). Both reconstruction and data evaluation were performed in Mediso InterView FUSION software (Mediso Medical Imaging Systems, Budapest, Hungary) (Mediso, Budapest, Hungary). Final images were normalised to injected activity and animal weight. All organs with radiopharmaceutical accumulation were roughly delineated on the images, while their SUVmax value was recorded. The SUV41% (Standardized Uptake Value 41%) was then calculated as 41% of each SUVmax value of given hotspot and the ROI was delineated based on this value (Boellaard et al. [2015]). All images were exported in maximum intensity projection (MIP) mode. The results from the ex vivo biodistribution study were subjected to statistical analysis, namely unpaired Student’s t-test (Microsoft Excel 365, USA).

[2] = Radiochemical stability in physiological pH water environment; type: physicochemical; conditions: pH 7, 37 °C; for Stability in Physiological pH (%): radiochemical purity, n = 1
Protocol: (§1) Quality control, i.e. radiochemical purity, of the ^68Ga-labelled PSMA inhibitors was evaluated by analytical high performance liquid chromatography (HPLC; Dionex UltiMate 3000, Thermo Scientific, Waltham, Massachusetts, USA) using the following equipment: ACE 3 C18 column; 150 × 3 mm, 3 μm (Advanced Chromatography Technologies Ltd, Aberdeen, UK), with gradient elution A: H2O/acetonitrile (ACN); B:0.1% trifluoroacetic acid (TFA)/H2O: 0–3 min, 0% ACN; 3–10 min, 0 − 50% ACN; 10–13 min, 50 − 80% ACN; 13–15 min, 80–0% ACN, for 15 min at a flow rate of 1 mL/min. Radiometric detection was performed using a GABI Star radiodetector (Raytest GmbH, Straubenhardt, Germany) and for chromatogram quantification Chromatography Data System (CDS) - Chromeleon software (Thermo Scientific, USA) was used. The actual sample injection was performed using a Hamilton microinjector (Hamilton, USA).
Radiochemical stability in a physiological pH water environment was determined as follows: 100 µL of acetate buffer (1.1 mol/L) was added to the labelled preparation and the pH was then checked with a pH indicator paper to be 7. The mixture was further incubated at 37 °C and after 30, 60 and 120 min, 10 µL aliquot was used for HPLC analysis of radiochemical purity.

human plasma proteins [3] = conditions: cited from earlier work
human plasma proteins [4] = test: Binding to human plasma proteins; type: in vitro ADME; conditions: for Protein binding (%): human plasma, 37 °C, n = 2
Protocol: (§2) Binding to human plasma proteins was determined following this procedure: 10 µL of the ⁶⁸Ga-P15 with radioactivity of 45 kBq/100 µL was mixed with 190 µL of human plasma. The sample was then incubated at 37 °C. After 0, 30, 60 and 120 min 25 µL of the sample was collected, applied to the appropriate column and centrifuged at 2000 g for 2 minutes. The radioactivity of the samples was then measured using a gamma counter 2480 Wizard^2 (PerkinElmer, Waltham, MA, USA), and then the binding to plasma proteins was calculated using the following formula % plasma protein binding = (Aelution/Atotal)×100. The same procedure was applied when determining binding to plasma proteins of ⁶⁸Ga-P16, ⁶⁸Ga-P19, and ⁶⁸Ga-PSMA-617.

[5] = Stability in human plasma/serum (radiochemical purity by HPLC); type: in vitro ADME; conditions: radiochemical purity, 37 °C, n = 1
Protocol: as §1
Plasma stability was determined as follows. To 100 µL of ⁶⁸Ga-P15 with radioactivity of 45 kBq/100 µL, 400 µL of human plasma was added and mixed. The mixture was incubated at 37 °C and 100 µL samples were taken at 30, 60 and 120 min. These samples were then mixed with 200 µL of acetonitrile and placed on a shaker for 1 min. The sample was then centrifuged at 15,000 rpm for 3 min. After centrifugation, the supernatant was collected for radiochemical purity analysis by HPLC. The same procedure was applied when determining plasma stability of ⁶⁸Ga-P16, ⁶⁸Ga-P19, and ⁶⁸Ga-PSMA-617.

[6] = as above; type: in vitro ADME; conditions: 37 °C, incubation time 0 min, n = 1
mouse serum proteins = system: mouse serum proteins; parameters: method as in Umbricht et al. [2018]; conditions: ref Umbricht et al. [2018]; cited from earlier work
PSMA = PSMA affinity, cited from earlier work
[7] = Binding to human plasma proteins; type: in vitro ADME; conditions: human plasma, 37 °C, n = 2, read-out: Protein binding (%) (converted)
Protocol: as §2

specific accumulation (tumour), fold lower than [68Ga]Ga-PSMA-617 ([1]; one-hour p.i.): 7 fold | specific accumulation (tumour), fold lower than [68Ga]Ga-PSMA-617 ([1]; two-hours p.i.): more than 17.5 fold
SMILES: O=C(O)CC[C@H](NC(=O)N[C@@H](CCC(=O)N[C@H](Cc1ccc2ccccc2c1)C(=O)N[C@H]1CC[C@H](NC(=O)CN2CCN(CC(=O)O)CCN(CC(=O)O)CCN(CC(=O)O)CC2)CC1)C(=O)O)C(=O)O [P15, Glu-urea-Glu-2-Nal-D-Ala-NH-CHX-NH-DOTA]

Stability in Physiological pH (%) ([2]; incubation time 0 min): 98.4% | Stability in Physiological pH (%) ([2]; incubation time 30 min): 98.5% | Stability in Physiological pH (%) ([2]; incubation time 60 min): 98.9% | Stability in Physiological pH (%) ([2]; incubation time 120 min): 98.5% | Protein binding (%) (human plasma proteins [4]; incubation time 0 min): 52.6% | Protein binding (%) (human plasma proteins [4]; incubation time 30 min): 52.9% | Protein binding (%) (human plasma proteins [4]; incubation time 60 min): 53.3% | Protein binding (%) (human plasma proteins [4]; incubation time 120 min): 54.3% | Binding rate to human plasma proteins (human plasma proteins [4]; overall statement, incubation up to 120 min): approximately 54% | Stability in human serum (%) ([5]; incubation time 30 min): 97.8% | Stability in human serum (%) ([5]; incubation time 60 min): 98.2% | Stability in human serum (%) ([5]; incubation time 120 min): 98.7% | tumour-to-blood ratio ([1]; one-hour p.i.): 5.5 ± 2.0 | tumour-to-kidney ratio ([1]; one-hour p.i.): 0.12 ± 0.03 | tumour-to-kidney ratio ([1]; two hours post injection): 1.26 ± 0.46 | tumour-to-blood ratio ([1]; two-hours p.i.): 13.6 ± 7.0 | tumour-to-muscle ratio ([1]; two-hours p.i.): 68.4 ± 66.1 | Stability in human serum (%) [6]: 98.4%
SMILES: O=C([O-])CN1CCN(CC(=O)[O-])CCN(CC(=O)NCC2CCC(C(=O)NC(Cc3ccc4ccccc4c3)C(=O)NCCCCC(NC(=O)NC(CCC(=O)O)C(=O)O)C(=O)O)CC2)CCN(CC(=O)[O-])CC1.[68Ga+3] (centres unmarked) [[^68Ga]Ga-PSMA-617, reference compound]
Binding to plasma proteins (human plasma proteins [3]; human, ref Benešová et al. [2018]): 59% | Binding to human plasma proteins (human plasma proteins [3]; ref Umbricht et al. [2018]): 59% | Binding to mouse serum proteins (mouse serum proteins): 6%

fraction unbound at 0 min, 2.25 kBq/100 µL ([7]; incubation time 0 min): 0.47 | fraction unbound at 120 min, 2.25 kBq/100 µL ([7]; incubation time 120 min): 0.46 | tumour-to-background ratio, fold higher than [68Ga]Ga-P19 ([1]; two hours after administration): ~1.5 fold
SMILES: O=C(O)CC[C@H](NC(=O)N[C@@H](CCCCNC(=O)[C@H](Cc1ccc2ccccc2c1)NC(=O)[C@H]1CC[C@H](CNC(=O)CN2CCN(CC(=O)O)CCN(CC(=O)O)CCN(CC(=O)O)CC2)CC1)C(=O)O)C(=O)O [PSMA-617, Glu-urea-Lys-2-Nal-L-Ala-CHX-DOTA, reference compound]
Ki (PSMA; ref Benešová et al. [2015]): 0.00234 µM

Radiochemical purity in physiological pH environment ([2]; each time-point tested (30, 60, 120 min)): highest stability | tumour-to-blood ratio ([1]; two-hours p.i.): 9.1 ± 1.7 | tumour-to-muscle ratio ([1]; two-hours p.i.): 47.8 ± 12.4
SMILES: O=C(O)CC[C@H](NC(=O)N[C@@H](CCCCNC(=O)[C@@H](NC(=O)c1ccc(CNC(=O)CN2CCN(CC(=O)O)CCN(CC(=O)O)CCN(CC(=O)O)CC2)cc1)C(c1ccccc1)c1ccccc1)C(=O)O)C(=O)O [P19, Glu-urea-Lys-3,3-diphenyl-L-Ala-AMBA-DOTA]

SMILES: NCCCCC(NC(=O)NC(CCC(=O)O)C(=O)O)C(=O)O (centres unmarked) [Glu-urea-Lys]
Ki (PSMA; ref Banerjee et al. [2008]): 0.0152 µM

SMILES: O=C(O)CCC(NC(=O)NC(CCC(=O)O)C(=O)O)C(=O)O (centres unmarked) [Glu-urea-Glu]
Ki (PSMA; ref Kozikowski et al. [2001]): 0.047 µM
